Assays:
PLA2 of NK venom = assay: Inhibition of PLA2 activity of NK venom (indirect hemolytic assay on agarose-erythrocyte-egg yolk gel plates); assay type: biochemical, Naja naja kaouthia; settings: NK venom 3.4 µg (one MIHD); pre-incubated 1 h at 37 °C; mean ± S.E.M. (n = 2)
Experimental: (§1) PLA2 activity in CR and NK venoms was measured using an indirect hemolytic assay on agarose-erythrocyte-egg yolk gel plates to define the minimum indirect hemolytic dose (MIHD), the dose of venom that induced a hemolysis halo of 20 mm diameter after incubation for 20 h at 37 °C. The inhibition of PLA2 activity by MSKE and its isolated phenolic principles was determined against one MIHD of CR and NK venoms. Test solutions and the venoms (0.05 mL each) were pre-incubated for 1 h at 37 °C. After centrifugation at 10,000 rpm for 10 min, the supernatant (20 µL) was tested for PLA2 activity. The anti-PLA2 potential of the extract and its phenolic principles was presented as percent inhibition of the enzymatic activity versus dose, in which 100% inhibition should produce no clear zone. ED50, the effective dose that PLA2 activity of the venoms was reduced by 50%, was calculated.

PLA2 of CR venom = assay: Inhibition of PLA2 activity of CR venom (indirect hemolytic assay on agarose-erythrocyte-egg yolk gel plates); assay type: biochemical, Calloselasma rhodostoma; settings: CR venom 17.1 µg (one MIHD); pre-incubated 1 h at 37 °C; mean ± S.E.M. (n = 2)
Experimental: as §1

LAAO of CR venom = molecular target: T1, LAAO of CR venom (Calloselasma rhodostoma, UniProt P81382); assay: Inhibition of LAAO activity of CR venom (enzyme-coupled assay); assay type: biochemical; settings: CR venom 50 µg; pre-incubated 1 h at 37 °C; mean ± S.E.M. (n = 2)
T1 construct: from tissue; host or cells: crude snake venom (CR)
T1 sequence (P81382 19-516): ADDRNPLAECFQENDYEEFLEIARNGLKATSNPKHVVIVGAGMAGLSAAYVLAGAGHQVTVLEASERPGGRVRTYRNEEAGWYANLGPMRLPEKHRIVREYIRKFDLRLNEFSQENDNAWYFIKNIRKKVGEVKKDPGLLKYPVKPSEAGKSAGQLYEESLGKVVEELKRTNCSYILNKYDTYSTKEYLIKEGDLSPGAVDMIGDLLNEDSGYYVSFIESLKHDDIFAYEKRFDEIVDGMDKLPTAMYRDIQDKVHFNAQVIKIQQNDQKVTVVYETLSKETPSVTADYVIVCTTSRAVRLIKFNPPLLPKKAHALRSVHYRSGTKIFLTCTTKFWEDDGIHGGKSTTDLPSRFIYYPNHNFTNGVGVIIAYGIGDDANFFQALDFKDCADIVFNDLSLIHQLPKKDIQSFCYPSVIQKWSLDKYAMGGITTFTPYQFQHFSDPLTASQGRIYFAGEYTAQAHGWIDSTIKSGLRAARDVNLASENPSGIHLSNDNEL
Experimental: (§2) LAAO activity of CR and NK venoms was determined by using an enzyme-coupled assay. The assay mixture contained 0.025 mL 0.014% peroxidase and 0.2 M triethanolamine buffer (1 mL, pH 7.6) that contained 0.1% L-leucine and 0.0065% o-dianisidine. After incubation at 25 °C for 3 min, 0.1 mL CR or NK venom in PBS (1 mg/mL) was added, and an increase in absorbance at 436 nm (Shimadzu UV-VIS spectrophotometer UV-160A) was measured against blank. Enzymatic activity was calculated from the linear portion of the time–absorbance plot, where one unit of enzymatic activity was defined as the amount of enzyme that caused an increase of 0.001 absorbance units per minute. The percent inhibition of LAAO activity by MSKE and its isolated phenolic principles was evaluated by pre-incubating CR or NK venom (0.1 mL, 1 mg/mL) with test sample in sterile water for injection (SWI) (0.1 mL) for 1 h at 37 °C. After pre-incubation, the mixture was centrifuged at 10,000 rpm for 5 min, and supernatant (0.1 mL) was evaluated for LAAO activity. Venoms, test sample, and solvents alone were used as controls. The anti-LAAO potential of the extract and its phenolic principles was presented as percent inhibition of the enzymatic activity versus dose. ED50, the effective dose that LAAO activity of the venoms was reduced by 50%, was calculated.

LAAO of NK venom = assay: Inhibition of LAAO activity of NK venom (enzyme-coupled assay); assay type: biochemical, Naja naja kaouthia; settings: NK venom 50 µg; pre-incubated 1 h at 37 °C; mean ± S.E.M. (n = 2)
Experimental: as §2

[1] = tested on: hyaluronidase of NK venom; assay: Inhibition of hyaluronidase activity of NK venom (turbidimetric); assay type: biochemical, Naja naja kaouthia; settings: NK venom 250 µg; pre-incubated 30 min at 37 °C; mean ± S.E.M. (n = 2)
Experimental: (§3) Hyaluronidase activity was determined according to the methods of Ferrante and Yingprasertchai et al. with slight modification. CR or NK venom (25-1,000 µg) in PBS (pH 7.4) was incubated with hyaluronic acid (50 μg) in 0.2 M sodium acetate buffer (1 mL, pH 5) that contained 0.15 M NaCl for 25 min at 37 °C. The reaction was stopped by adding 2.5% cetyltrimethylammonium bromide in 2% NaOH (2 mL). The optical density at 400 nm of each sample was read after 30 min with a Shimadzu UV-VIS spectrophotometer UV-160A against blank. Turbidity-reducing activity was expressed as the percentage of the remaining hyaluronic acid, taking the absorbance of a tube to which no enzyme was added as 100%. The venom concentration that produced a reduction in turbidity of ~50% was used in inhibition experiments. […] Blanks containing only the buffer and test sample were run in parallel. The anti-hyaluronidase potential of the extract and its phenolic principles was presented as percent inhibition of the enzymatic activity versus dose. ED50, the effective dose that hyaluronidase activity of the venoms was reduced by 50%, was calculated.

[2] = tested on: hyaluronidase of CR venom; assay: Inhibition of hyaluronidase activity of CR venom (turbidimetric); assay type: biochemical, Calloselasma rhodostoma; settings: CR venom 250 µg; pre-incubated 30 min at 37 °C; mean ± S.E.M. (n = 2)
Experimental: as §3

| SMILES | PLA2 (ED50, µg) NK venom (PLA2 of NK venom) [µg] | PLA2 (ED50, µg) CR venom (PLA2 of CR venom) [µg] | LAAO (ED50, µg) CR venom (LAAO of CR venom) [µg] | LAAO (ED50, µg) NK venom (LAAO of NK venom) [µg] | Hyaluronidase (ED50, µg) NK venom [1] [µg] | Hyaluronidase (ED50, µg) CR venom [2] [µg] |
| --- | --- | --- | --- | --- | --- | --- |
| O=C(O)c1cc(O)c(O)c(O)c1 [GA, gallic acid] | 123.5 ± 2.5 | 66.0 ± 2.5 | 1.7 ± 3.4 | 4.5 ± 2.8 | 14.8 ± 1.4 | 16.0 ± 2.5 |
| COC(=O)c1cc(O)c(O)c(O)c1 [MG, methyl gallate] | 108.7 ± 2.0 | 42.9 ± 2.3 | 2.3 ± 2.4 | 4.4 ± 2.0 | 8.6 ± 2.1 | 5.9 ± 2.4 |
| O=C(OC[C@H]1O[C@@H](OC(=O)c2cc(O)c(O)c(O)c2)[C@H](OC(=O)c2cc(O)c(O)c(O)c2)[C@@H](OC(=O)c2cc(O)c(O)c(O)c2)[C@@H]1OC(=O)c1cc(O)c(O)c(O)c1)c1cc(O)c(O)c(O)c1 [PGG, 1,2,3,4,6-penta-O-galloyl-β-D-glucopyranose] | 30.2 ± 2.4 | 25.6 ± 1.3 | 0.9 ± 2.4 | 2.2 ± 2.0 | 2.6 ± 1.7 | 3.4 ± 2.4 |

Source: article PMC6254154 (Molecules, 2009)
